Results reported in PMC13408680, “SLC26A11 is an atypical solute carrier with dual transport-channel function mediating lysosomal sulfate transport” (Nature Communications, 2026).
Changes are numbered by the printed parent chain.

T1: SLC26A11^ΔC (SLC26A11(ΔC)) (Homo sapiens, UniProt Q86WA9)
T1 construct: C-terminal disordered 23 residues deleted (MD model residues 26-583); expressed in Trichoplusia ni cells by baculovirus; N-glycosylated at Asn-294; homodimer; DDM micelles (DSF), SoyPC/BMP proteoliposomes (transport), MSP1-E3D1 nanodiscs (cryo-EM)
T1 sequence (Q86WA9 1-583): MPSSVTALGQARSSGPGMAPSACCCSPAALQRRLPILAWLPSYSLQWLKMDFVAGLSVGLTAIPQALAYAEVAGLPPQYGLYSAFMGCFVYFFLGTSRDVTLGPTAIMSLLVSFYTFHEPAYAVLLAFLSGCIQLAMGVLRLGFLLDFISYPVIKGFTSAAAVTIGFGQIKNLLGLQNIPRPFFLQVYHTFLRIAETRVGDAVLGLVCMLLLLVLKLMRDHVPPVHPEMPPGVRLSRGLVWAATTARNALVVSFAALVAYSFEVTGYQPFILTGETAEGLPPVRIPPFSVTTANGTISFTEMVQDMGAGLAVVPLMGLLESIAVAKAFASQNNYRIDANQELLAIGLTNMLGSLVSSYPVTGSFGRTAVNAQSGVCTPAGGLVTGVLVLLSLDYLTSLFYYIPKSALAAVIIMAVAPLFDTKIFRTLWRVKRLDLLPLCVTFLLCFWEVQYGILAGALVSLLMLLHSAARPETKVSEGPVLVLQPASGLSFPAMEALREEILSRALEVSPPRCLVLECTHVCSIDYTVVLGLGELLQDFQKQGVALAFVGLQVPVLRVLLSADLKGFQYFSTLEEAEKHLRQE

T2: SLC26A11^ΔC (SLC26A11(ΔC)) (Homo sapiens, UniProt Q86WA9, E320Q)
T2 construct: C-terminal disordered 23 residues deleted (MD model residues 26-583); expressed in Trichoplusia ni cells by baculovirus; N-glycosylated at Asn-294; homodimer; DDM micelles (DSF), SoyPC/BMP proteoliposomes (transport), MSP1-E3D1 nanodiscs (cryo-EM)
T2 sequence (Q86WA9 1-583 E320Q): T1 sequence (Q86WA9 1-583) with E320Q

B1: SLC26A11^ΔC (SLC26A11(ΔC)) (Homo sapiens) (protein)
chain: T1 sequence (Q86WA9 1-583)
notes: C-terminal disordered 23 residues deleted (MD model residues 26-583); expressed in Trichoplusia ni cells by baculovirus; N-glycosylated at Asn-294; homodimer; DDM micelles (DSF), SoyPC/BMP proteoliposomes (transport), MSP1-E3D1 nanodiscs (cryo-EM)

Experiments:
[1] = biological target: T1, SLC26A11^ΔC (SLC26A11(ΔC)); assay: differential scanning fluorimetry (nanoDSF), anion titration; format: binding; conditions: read-out: apparent KD
[2] = biological target: T2, SLC26A11^ΔC (SLC26A11(ΔC)); assay: as above; format: binding
purified protein = substrate: O=S(=O)(O)O; assay: purified protein; format: biochemical, Homo sapiens; conditions: pH out 5.0, pH in 7.5, 50 mM internal chloride, 30 °C, labelled compound

Molecule | Kd [1] | Kd [2] | Km (purified protein)
Cl [chloride] | 6 ± 1.4 mM | 8.8 ± 1.4 mM | 
O=S(=O)(O)O [sulfate] | 0.057 ± 0.011 mM | 0.019 ± 0.004 mM | 
B1 |  |  | 39.7 ± 5.5 µM
